Some test systems named below: BT-549 breast; SF-539 CNS; RPMI-8226 leukemia; OVCAR-8 ovarian; SNB-19 CNS; SK-MEL-28 melanoma; HOP-92 NSCLC; UACC-257 melanoma; MDA-MB-231 breast; KM12 colon.
Assay in all cases: NCI anticancer screen, dose series, 48 h

Each structure is given as a SMILES string. “And” between values parts separate entries of the source, which are not always exact repeats. Equal values may be shown once.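 Growth conditions: 96-well plates. Treatment: test compound, 48 hours, 5 concentrations. Analysis: linear interpolation between bracketing concentrations; unreached endpoints set to highest concentration. Here, GI50 denotes the concentration required for 50% inhibition of growth. TGI denotes the concentration required for complete inhibition of growth.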

Take `Cc1cc2c(c(=O)o1)C1=S(SC(c3ccccc3)=C1)S2` (stereo unspecified): the TGI is > 100 µM in the assay on BT-549 breast; 56.4 µM in the assay with SF-539 CNS; > 100 µM in the assay with RPMI-8226 leukemia; > 100 µM in the assay on OVCAR-8 ovarian; > 100 µM with SNB-19 CNS; > 100 µM in the assay with SK-MEL-28 melanoma. In addition, the TGI in the assay on HOP-92 NSCLC was 83 µM; in the assay on UACC-257 melanoma, > 100 µM; with MDA-MB-231 breast, > 100 µM; in the assay with KM12 colon it was > 100 µM.
In the case of `COc1ccc(OC)c(Cc2cnc3nc(N)nc(N)c3c2C)c1`, the TGI in the assay with BT-549 breast was 43.8 µM; in the assay with SF-539 CNS, 20.3 µM; in the assay on RPMI-8226 leukemia, 15.8 µM; in the assay with OVCAR-8 ovarian it was 27.8 µM; in the assay with SNB-19 CNS, 55.4 µM; in the assay on SK-MEL-28 melanoma it was > 51 µM. In addition, the TGI was found to be 39.6 µM with HOP-92 NSCLC, 47.4 µM in the assay on UACC-257 melanoma, 33.8 µM in the assay on MDA-MB-231 breast and 20.7 µM with KM12 colon.
Turning to `O=C(c1cc(Cc2n[nH]c(=O)c3ccccc23)ccc1F)N1CCN(C(=O)C2CC2)CC1`, the GI50 is 32.2 µM and 33.6 µM in the assay with BT-549 breast; > 100 µM in the assay on SF-539 CNS; 30.5 µM and 35.7 µM with RPMI-8226 leukemia; > 100 µM with OVCAR-8 ovarian; 80.5 µM and > 85.1 µM in the assay on SNB-19 CNS; > 100 µM with SK-MEL-28 melanoma. Also, the GI50 in the assay with UACC-257 melanoma, with MDA-MB-231 breast and in the assay with KM12 colon was > 100 µM throughout. In addition, the TGI in the assay with BT-549 breast, in the assay with SF-539 CNS, in the assay on RPMI-8226 leukemia, in the assay on OVCAR-8 ovarian, in the assay with SNB-19 CNS and in the assay with SK-MEL-28 melanoma was > 100 µM throughout. Moreover, the TGI with HOP-92 NSCLC, in the assay with UACC-257 melanoma, in the assay on MDA-MB-231 breast and in the assay on KM12 colon was > 100 µM throughout.
`CC(=O)N(O)c1ccc(/C=C/c2ccccc2)cc1`: the GI50 in the assay with BT-549 breast was 2.59 µM; with SF-539 CNS, 2.43 µM; with RPMI-8226 leukemia, 3.21 µM; with OVCAR-8 ovarian, 1.59 µM; in the assay with SNB-19 CNS it was 1.88 µM; in the assay on SK-MEL-28 melanoma it was 9.39 µM. Also, the GI50 in the assay with HOP-92 NSCLC was 1.14 µM; in the assay with UACC-257 melanoma it was 1.23 µM; in the assay with MDA-MB-231 breast, 3.41 µM; in the assay with KM12 colon, 2.99 µM. The TGI with BT-549 breast was 20.5 µM; in the assay on SF-539 CNS it was 35.1 µM; with RPMI-8226 leukemia it was > 100 µM; in the assay on OVCAR-8 ovarian, > 52.5 µM; with SNB-19 CNS it was > 100 µM; with SK-MEL-28 melanoma it was > 100 µM. In addition, the TGI came to 3.65 µM in the assay with HOP-92 NSCLC, 5.17 µM in the assay on UACC-257 melanoma, 21.8 µM in the assay with MDA-MB-231 breast and 28.3 µM with KM12 colon.
In the case of `CC(C)(C)c1cc(C(=O)O)c2c(c1)C(=O)OC2(c1ccccc1)c1ccccc1C(=O)O` (stereo unspecified), the GI50 in the assay with BT-549 breast, with RPMI-8226 leukemia and in the assay on MDA-MB-231 breast was > 100 µM throughout. Moreover, the TGI in the assay with BT-549 breast, with SF-539 CNS, with RPMI-8226 leukemia, in the assay on OVCAR-8 ovarian, with SNB-19 CNS and with SK-MEL-28 melanoma was > 100 µM throughout. Further, the TGI with HOP-92 NSCLC, in the assay on UACC-257 melanoma, with MDA-MB-231 breast and in the assay with KM12 colon was > 100 µM throughout.
In the case of `COc1c(CC=C(C)C)c(O)c(C(CC(C)C)c2c(O)c(CC=C(C)C)c(O)c(C(C)=O)c2O)c(O)c1C(C)=O` (stereo unspecified), the TGI came to 14.9 µM in the assay on BT-549 breast; 7.76 µM in the assay on SF-539 CNS; 4.17 µM with RPMI-8226 leukemia; 10.3 µM in the assay with OVCAR-8 ovarian; 15.2 µM in the assay on SNB-19 CNS; 5.21 µM in the assay with SK-MEL-28 melanoma. In addition, the TGI in the assay on HOP-92 NSCLC stood at 0.562 µM; in the assay on UACC-257 melanoma, 5.11 µM; with MDA-MB-231 breast it was 7.66 µM; in the assay on KM12 colon, 5.05 µM.
Take `CCn1ccnc1C(=O)/C=C/c1ccc(CC(=O)Nc2ccc(F)cc2)cc1`: the GI50 in the assay on BT-549 breast was 2.94 µM; in the assay with SF-539 CNS, 2.93 µM; in the assay with RPMI-8226 leukemia, 2.28 µM; with OVCAR-8 ovarian it was 4.86 µM; in the assay on SNB-19 CNS it was 3.58 µM; in the assay on SK-MEL-28 melanoma it was 4.92 µM. Moreover, the GI50 was 3.32 µM in the assay with HOP-92 NSCLC, 14 µM in the assay on UACC-257 melanoma, 4.36 µM with MDA-MB-231 breast and 3.06 µM in the assay on KM12 colon. Besides, the TGI in the assay with BT-549 breast was 7.03 µM; in the assay with SF-539 CNS it was 6.15 µM; in the assay on RPMI-8226 leukemia, 8.09 µM; in the assay on OVCAR-8 ovarian, > 16.7 µM; in the assay with SNB-19 CNS, > 16.7 µM; in the assay on SK-MEL-28 melanoma, > 16.7 µM. Besides, the TGI was 8.83 µM in the assay with HOP-92 NSCLC, > 16.7 µM in the assay with UACC-257 melanoma, > 16.7 µM in the assay on MDA-MB-231 breast and 8.33 µM in the assay with KM12 colon.
As for `O=[N+]([O-])c1cc(Cc2cc([N+](=O)[O-])c3cccnc3c2O)c(O)c2ncccc12`, the TGI is > 77.7 µM in the assay with BT-549 breast; > 96 µM in the assay with SF-539 CNS; 41.4 µM in the assay with RPMI-8226 leukemia; > 42.9 µM in the assay on OVCAR-8 ovarian; 51.2 µM with SNB-19 CNS; 37.4 µM in the assay with SK-MEL-28 melanoma. Moreover, the TGI in the assay on HOP-92 NSCLC stood at 37.1 µM; with UACC-257 melanoma, 14.1 µM; with MDA-MB-231 breast it was 25.9 µM; with KM12 colon it was 25.8 µM.
In the case of `O=c1[nH]c2ccccc2n1C1CCN(CCCC(c2ccc(F)cc2)c2ccc(F)cc2)CC1`, the GI50 in the assay on BT-549 breast was 1.72 µM and 8.47 µM; in the assay on SF-539 CNS, 1.88 µM and 3.35 µM; in the assay with RPMI-8226 leukemia it was 2.06 µM and 3.96 µM; with OVCAR-8 ovarian, 1.58 µM and 9.14 µM; with SNB-19 CNS it was 1.67 µM; with SK-MEL-28 melanoma it was 1.61 µM. Besides, the GI50 was 0.252 µM in the assay with HOP-92 NSCLC; 1.58 µM and 2.83 µM with UACC-257 melanoma; 1.33 µM and 7.38 µM with MDA-MB-231 breast; 1.76 µM and 6.97 µM with KM12 colon. Further, the TGI is 3.31 µM and 23.6 µM in the assay with BT-549 breast; 3.58 µM and 9.28 µM in the assay with SF-539 CNS; 8.97 µM and 20.4 µM in the assay with RPMI-8226 leukemia; 3.28 µM and 24.3 µM in the assay with OVCAR-8 ovarian; 3.29 µM and 28.8 µM with SNB-19 CNS; 2.99 µM and 5.86 µM in the assay with SK-MEL-28 melanoma. For the same molecule, the TGI in the assay with HOP-92 NSCLC was 1.71 µM and 14 µM; with UACC-257 melanoma, 3.24 µM and 7.83 µM; with KM12 colon, 3.4 µM and 22.1 µM.
